Measurements as given in patent US9777002B2, “Inhibitors of the renal outer medullary potassium channel” (Merck Sharp & Dohme Corp., priority 2012, dated 2017).

Target: T1, hROMK (hKir1.1) (Homo sapiens, UniProt P48048)
T1 construct: expressed in transfected cells
T1 sequence (P48048 1-391): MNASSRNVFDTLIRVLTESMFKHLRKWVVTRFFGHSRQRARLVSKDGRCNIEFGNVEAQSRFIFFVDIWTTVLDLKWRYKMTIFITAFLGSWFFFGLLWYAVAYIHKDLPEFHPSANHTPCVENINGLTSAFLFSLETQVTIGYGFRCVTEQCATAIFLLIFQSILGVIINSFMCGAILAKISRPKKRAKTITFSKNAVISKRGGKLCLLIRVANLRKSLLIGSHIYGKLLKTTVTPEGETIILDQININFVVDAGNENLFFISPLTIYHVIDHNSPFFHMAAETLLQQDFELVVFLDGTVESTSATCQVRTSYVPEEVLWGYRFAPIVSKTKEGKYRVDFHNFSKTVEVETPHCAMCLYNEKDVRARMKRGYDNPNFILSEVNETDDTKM
Assay: Thallium Flux Assay
Assay type: cell-based
Conditions: HEK293 cells stably expressing hROMK (hKir1.1)
Protocol: Cell Culture Conditions—HEK293 cells stably expressing hROMK (hKir1.1) were grown at 37° C. in a 10% CO2 humidified incubator in complete growth media: Dulbecco's Modified Eagle Medium supplemented with non-essential amino acids, Penicillin/Streptomycin/Glutamine, G418 and FBS. At >80% confluency, aspirate the media from the flask and rinse with 10 mL Calcium/Magnesium-free PBS. Add 5 mL of 1× trypsin (prepared in Ca/Mg Free PBS) to T-225 flask and return flask to 37° C./CO2 incubator for 2-3 minutes. To dislodge the cell, gently bang the side of the flask with your hand. Triturate the cells completely and then transfer the cells to 25 mL complete media. Centrifuge at 1,500 rpm for 6 min followed by resuspension in complete growth media and determine cell concentration. For typical re-seeding, 4E6 cells/T-225 flask will attain >80% confluency in 4 days. Under ideal growth conditions and appropriate tissue culture practices, this cell line is stable for 40-45 passages.
FluxOR Kit Components (Invitrogen F10017)
• FluxOR™ Reagent (Component A) • FluxOR™ Assay Buffer (Component B)—10× Concentrate • PowerLoad™ Concentrate (Component C)—100× Concentrate • Probenecid (Component D)—Lyophilized sample is kept at −20° C. Water soluble, 100× after solubilization in 1 mL water. Store at 4° C. • FluxOR™ Chloride-free Buffer (Component E)—5× Concentrate • Potassium sulfate (K2SO4) Concentrate (Component F)—125 mM in water. Store at 4° C. • Thallium sulfate (Tl2SO4) Concentrate (Component G)—50 mM in water. Store at 4° C. • DMSO (dimethyl sulfoxide, Component H)—1 mL (100%) Reagent Preparation: FluxOR Working Solutions • 1000× FluxOR™ Reagent: Reconstitute a vial of component A in 100 μl DMSO; Mix well; Store 10 μl aliquots at −20° C. • 1× FluxOR™ Assay Buffer: Dilute Component B 10-fold with water; Adjust pH to 7.4 with Hepes/NaOH; Filter and store at 4° C. • Probenecid/Assay Buffer: 100 mL of 1× FluxOR™ Assay Buffer; 1 mL of reconstituted component D; Store at 4° C. • Loading Buffer (per microplate): 10 μl 1000× FluxOR™ Reagent; 100 μl component C; 10 mL Probenecid/Assay Buffer • Compound Buffer (per microplate): 20 mL Probenecid/Assay Buffer; 0.3 mM ouabain (10 mM ouabain in water can be stored in amber bottle/aluminum foil at room temperature); Test compound • 1× FluxOR™ Chloride-Free Buffer: Prepare 1× working solution in water. Can be stored at room temperature • Stimulant Buffer (prepared at 5× final concentration in 1× FluxOR™Chloride-Free Buffer): 7.5 mM Thallium sulfate and 0.75 mM Potassium sulfate (to give a final assay concentration of 3 mM Thallium/0.3 mM Potassium). Store at 4° C. when not in use. If kept sterile, this solution is good for months.
Assay Protocol—The ROMK channel functional thallium flux assay is performed in 384 wells, using the FLIPR-Tetra instrument. HEK-hKir1.1 cells are seeded in Poly-D-Lysine microplates and kept in a 37° C.-10% CO2 incubator overnight. On the day of the experiment, the growth media is replaced with the FluxOR™ reagent loading buffer and incubated, protected from light, at ambient temperature (23-25° C.) for 90 min. The loading buffer is replaced with assay buffer± test compound followed by 30 min incubation at ambient temperature, where the Thallium/Potassium stimulant is added to the microplate.
• 1. Seed HEK-hKir1.1 cells (50 μl at 20,000 cells/well) in 384-well PDL coated Microplates • 2. Allow cells to adhere overnight in humidified 37° C./10% CO2 incubator • 3. Completely remove cell growth media from microplate and replace with 25 μl loading buffer • 4. Incubate Microplate at room temperature, protected form light, for 90 min • 5. Remove loading buffer and replace with 25 μl 1× Assay Buffer±test compound. • 6. Incubate microplate at room temperature, protected from light, for 30 min • 7. At FLIPR-Tetra 384: Add stimulant (Thallium/Potassium) solution to microplate and monitor fluorescence. Excitation=400 nm, Emission=460 & 580 nm. Collect data for ˜10 min. […]

IC50 | Structure (SMILES)
180 nM | Cc1c([C@@H](O)CN2CC[C@H](NC(=O)c3ccc(C#N)cn3)[C@H](F)C2)ccc2c1COC2=O (single isomer, unassigned) [43 B]
570 nM | Cc1nc(C(=O)N[C@H]2CCN(C[C@H](O)c3ccc4c(c3C)COC4=O)C[C@H]2F)ccc1C#N (single isomer, unassigned) [44 A]
260 nM | Cc1nc(C(=O)N[C@H]2CCN(C[C@H](O)c3ccc4c(c3C)COC4=O)C[C@H]2F)ccc1C#N (single isomer, unassigned) [44 B]
520 nM | Cc1c([C@@H](O)CN2CCC(NC(=O)c3ccc(C#N)nc3)C(F)C2)ccc2c1COC2=O (single isomer, unassigned) [46 A]
650 nM | Cc1c([C@@H](O)CN2CCC(NC(=O)c3ccc(C#N)nc3)C(F)C2)ccc2c1COC2=O (single isomer, unassigned) [46 B]
160 nM | Cc1cc(C(=O)N[C@H]2CCN(C[C@H](O)c3ccc4c(c3C)COC4=O)C[C@H]2F)ccc1C#N (single isomer, unassigned) [47 A]
180 nM | Cc1cc(C(=O)N[C@H]2CCN(C[C@H](O)c3ccc4c(c3C)COC4=O)C[C@H]2F)ccc1C#N (single isomer, unassigned) [47 B]
80 nM | Cc1cc(C(=O)NC2CCN(C[C@H](O)c3ccc4c(c3C)COC4=O)CC2F)ncc1C#N (single isomer, unassigned) [48 A]
100 nM | Cc1cc(C(=O)NC2CCN(C[C@H](O)c3ccc4c(c3C)COC4=O)CC2F)ncc1C#N (single isomer, unassigned) [48 B]
100 nM | Cc1c([C@@H](O)CN2CC[C@H](NC(=O)c3ccc(-n4cnnn4)nc3)[C@H](F)C2)ccc2c1COC2=O (single isomer, unassigned) [50 A]
930 nM | Cc1c([C@@H](O)CN2CC[C@H](NC(=O)c3ccc(-n4cnnn4)nc3)[C@H](F)C2)ccc2c1COC2=O (single isomer, unassigned) [50 B]
760 nM | CO[C@@H]1CN(C[C@H](O)c2ccc3c(c2C)COC3=O)CC[C@@H]1NC(=O)c1ccc(-n2cnnn2)nc1 (single isomer, unassigned) [54 A]
340 nM | CO[C@@H]1CN(C[C@H](O)c2ccc3c(c2C)COC3=O)CC[C@@H]1NC(=O)c1ccc(-n2cnnn2)nc1 (single isomer, unassigned) [54 B]
540 nM | Cc1c([C@@H](O)CN2CC[C@H](NC(=O)c3ccc(-n4cnnn4)cn3)[C@H](F)C2)ccc2c1COC2=O (single isomer, unassigned) [58 A]
870 nM | Cc1c([C@@H](O)CN2CC[C@H](NC(=O)c3ccc(-n4cnnn4)cn3)[C@H](F)C2)ccc2c1COC2=O (single isomer, unassigned) [58 B]
880 nM | Cc1c([C@@H](O)CN2CCC(C)(CNC(=O)c3ccc(-n4cnnn4)cn3)C2)ccc2c1COC2=O (single isomer, unassigned) [69 A]

IC50 | Structure (SMILES)
490 nM | Cc1c([C@@H](O)CN2CCC(C)(CNC(=O)c3ccc(-n4cnnn4)cn3)C2)ccc2c1COC2=O (single isomer, unassigned) [69 B]
620 nM | Cc1c([C@@H](O)CN2CCC(CNC(=O)c3ccc(-n4cnnn4)nc3)(c3ccccc3)C2)ccc2c1COC2=O (single isomer, unassigned) [81 A]
160 nM | Cc1c([C@@H](O)CN2CCC(CNC(=O)c3ccc(-n4cnnn4)nc3)(c3ccccc3)C2)ccc2c1COC2=O (single isomer, unassigned) [81 B]
740 nM | Cc1c([C@@H](O)CN2CCC(C3(NC(=O)c4ccc(-n5cnnn5)nc4)CCC3)C2)ccc2c1COC2=O (single isomer, unassigned) [90 A]
280 nM | Cc1c([C@@H](O)CN2CCC(C3(NC(=O)c4ccc(-n5cnnn5)nc4)CCC3)C2)ccc2c1COC2=O (single isomer, unassigned) [90 B]
600 nM | Cc1c(CCN2CCC(N(C)C(=O)c3ccc4c(c3)COC4=O)CC2)ccc2c1COC2=O [Example 2, N-Methyl-N-(1-(2-(4-methyl-1-oxo-1,3-dihydroisobenzofuran-5-yl)ethyl)piperidin-4-yl)-1-oxo-1,3-dihydroisobenzofuran-5-carboxamide]
500 nM | Cc1c(CCN2CCC(NC(=O)c3ccc(-n4cnnn4)nc3)CC2)ccc2c1COC2=O [Example 3, N-(1-(2-(4-Methyl-1-oxo-1,3-dihydroisobenzofuran-5-yl)ethyl)piperidin-4-yl)-6-(1H-tetrazol-1-yl)nicotinamide]
320 nM | C[C@H]1Cc2cc(CCN3CCC(NC(=O)c4ccc5c(c4)COC5=O)CC3)ccc2C(=O)O1 [Example 4, (S)-N-(1-(2-(3-methyl-1-oxoisochroman-6-yl)ethyl)piperidin-4-yl)-1-oxo-1,3-dihydroisobenzofuran-5-carboxamide]
20 nM | COc1cc(C(=O)NC2CCN(CCc3ccc4c(c3C)COC4=O)CC2)ccc1C#N [Example 5, 4-Cyano-3-methoxy-N-(1-(2-(4-methyl-1-oxo-1,3-dihydroisobenzofuran-5-yl)ethyl)piperidin-4-yl)benzamide]
40 nM | Cc1c(C(O)CN2CCC(NC(=O)c3ccc4c(c3)COC4=O)CC2)ccc2c1COC2=O (stereo not shown) [Example 6, N-(1-(2-Hydroxy-2-(4-methyl-1-oxo-1,3-dihydroisobenzofuran-5-yl)ethyl)piperidin-4-yl)-1-oxo-1,3-dihydroisobenzofuran-5-carboxamide]
10 nM | COc1cc(C(=O)NC2CCN(CC(O)c3ccc4c(c3C)COC4=O)CC2)ccc1C#N (stereo not shown) [Example 7, 4-Cyano-N-(1-(2-hydroxy-2-(4-methyl-1-oxo-1,3-dihydroisobenzofuran-5-yl)ethyl)piperidin-4-yl)-3-methoxybenzamide]
460 nM | Cc1c(CCN2CCC(NC(=O)c3ccc4nonc4c3)CC2)ccc2c1COC2=O [Example 8, N-(1-(2-(4-Methyl-1-oxo-1,3-dihydroisobenzofuran-5-yl)ethyl)piperidin-4-yl)benzo[c][1,2,5]oxadiazole-5-carboxamide]
30 nM | COc1ccc(C(=O)NC2CCN(CCc3ccc4c(c3C)COC4=O)CC2)cc1C#N [Example 9, 3-Cyano-4-methoxy-N-(1-(2-(4-methyl-1-oxo-1,3-dihydroisobenzofuran-5-yl)ethyl)piperidin-4-yl)benzamide]
60 nM | COc1ccc(C(=O)NC2CCN(CC(O)c3ccc4c(c3C)COC4=O)CC2)cc1C#N (stereo not shown) [Example 10, 3-Cyano-N-(1-(2-hydroxy-2-(4-methyl-1-oxo-1,3-dihydroisobenzofuran-5-yl)ethyl)piperidin-4-yl)-4-methoxybenzamide]
30 nM | Cc1c(CCN2CCC(NC(=O)c3ccc(C#N)c(F)c3)CC2)ccc2c1COC2=O [Example 11, 4-Cyano-3-fluoro-N-(1-(2-(4-methyl-1-oxo-1,3-dihydroisobenzofuran-5-yl)ethyl)piperidin-4-yl)benzamide]
